Measurements published in patent publication US20240390457A1, “COMPOSITION AND METHOD OF TREATING BRAIN CANCER” (Morehouse School of Medicine, priority 2023, published 2024).
Where no end group is shown, it is not given here.

Columns and labels:
[1] = system: U87MG cells; assay: Wound-healing assay, U87MG; format: cell-based, human; settings: weak acid pH 7.0
Procedure: (§1) Wound-healing assay was performed. Cells were seeded into a 24-well plate and grown to ˜80% confluence. The cell monolayer was scratched with 200 μl sterile pipette tip and treated with ECF with or without PcTX1 for 3 hours. The original wound areas at 0 hour were photographed with microscope (Olympus FSX100, 4×). After 3 hours, cells were then incubated with culture medium containing 1% FBS for 24 hours. 24 hours later, images were taken from the same location of the original wound areas and the migration distance was measured with Image J software. The wound-healing rate was calculated as: the ratio of wound closure=[(Area of original wound at 0 h−Area of wound after healing at 24 h)/Area of original wound at 0 h]×100%.
(§2) Next, the study examined whether knock-down of ASIC1 affects cell proliferation in the presence or absence of extracellular weak acid. MTT assay was performed to detect the cell viability at 24 h and 72 h with and without acid treatment both in siRNA-Control and siRNA-ASIC1 groups. […] The study further examined whether knockdown of ASIC1 has an effect on the migration of U87MG cells. […] The effect of ASIC1 knockdown on migration was also assessed by transwell.

[2] = system: U87MG cells; assay: Transwell migration assay, U87MG; format: cell-based, human; settings: PcTX1, pH 7.0 for 3 h, counted after 24 h
Procedure: The assay is based on two compartments separated by a mem-brane with an accurately defined pore size. Cell transwell chambers with 8-μm pore size of poly-carbonate membrane filters (Corning, USA) were first pre-coated with poly-L-ornithine over-night. Before plating cells, chambers were incubated with serum-free culture medium for 30 minutes. After that, cells were seeded with culture medium containing 1% FBS in the upper-chambers that were immersed to 750 μl whole medium (DMEM with 10% FBS). After incubating for another 24 hours, some cells on the upper surface of the filter migrated through the membrane to the lower surface of the filter. Cells on the upper face of the filter were wiped out thoroughly with cotton swabs, and those attached on the lower surface were fixed with 4% paraformaldehyde for 15 min. They were then stained with 0.5% crystal violet for 10 min, and let the membrane air dry. The cells on the lower surface of the membrane filter were counted under a microscope in 3-4 random fields with 10× magnification. Cell numbers in each group were normalized to the control groups. Assays were performed in at least 3 independent experiments. […]
Next, the study examined whether knock-down of ASIC1 affects cell proliferation in the presence or absence of extracellular weak acid. […] The effect of ASIC1 knockdown on migration was also assessed by transwell.

[3] = system: U87MG cells; assay: Cell viability (MTT) proliferation assay, U87MG; format: cell-based, human; settings: 20 nM PcTX1 with weak acid (pH 7.0), 3 h; different time points
Procedure: (§3) Cells were seeded in 96-well plates overnight and then incubated with pH 7.4 or 7.0 ECF in the absence or presence of 20 nM PcTX1 for 3 h, and then changed to culture medium containing 5% FBS incubating for 24 h, 48 h and 72 h. After the treatments, cell viability was measured by MTT Cell Proliferation Assay Kit according to the manufacturer's instructions. The absorbance values at 540 nm were detected by spectrometer (Molecular devices).
(§4) Severe acidosis (e.g. pH 6.0) promotes the proliferation of some type of glioma cells. This study first tested the effect of weak acid on the proliferation of A172 and U87MG cells. The study used either pH 7.4 or pH 7.0 solution to pretreat cells for 3 h, and then changed back to medium containing 5% FBS. The cell viability was measured at 24 h, 48 h and 72 h after acid treatment by MTT assay.
as §2

[4] = molecular target: T1, ASIC1 (Homo sapiens, UniProt P78348); assay: Whole-cell patch-clamp recording of acid-activated currents; format: cell-based; settings: PcTX1 20 nM perfusion for several minutes; pH drop 7.4 to 6.0; U87MG cells; n=5
T1 construct: drop of extra-cellular pH from 7.4 to 6.0 can induce transient inward currents in A172 and U87MG cells; endogenous in cells; host or cells: U87MG human glioblastoma cells (ATCC)
T1 sequence (P78348 1-528): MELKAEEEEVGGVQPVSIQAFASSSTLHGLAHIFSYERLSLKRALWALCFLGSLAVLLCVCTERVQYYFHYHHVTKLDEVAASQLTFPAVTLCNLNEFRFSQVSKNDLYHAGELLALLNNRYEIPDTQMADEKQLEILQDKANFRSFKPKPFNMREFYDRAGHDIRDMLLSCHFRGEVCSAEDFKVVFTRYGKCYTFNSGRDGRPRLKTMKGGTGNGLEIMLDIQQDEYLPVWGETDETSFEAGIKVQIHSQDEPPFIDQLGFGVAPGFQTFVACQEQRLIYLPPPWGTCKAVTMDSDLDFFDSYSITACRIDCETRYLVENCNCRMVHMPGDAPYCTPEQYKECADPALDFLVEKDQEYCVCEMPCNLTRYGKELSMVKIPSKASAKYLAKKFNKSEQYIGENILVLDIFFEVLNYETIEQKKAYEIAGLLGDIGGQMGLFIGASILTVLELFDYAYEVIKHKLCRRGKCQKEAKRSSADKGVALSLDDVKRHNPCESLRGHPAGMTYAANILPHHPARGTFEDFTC
Procedure: Whole-cell currents were recorded by patch-clamp techniques. The currents were recorded with an Axopatch 200B amplifier and low-pass filtered at 2 KHz, digitized using Digidata 1320 DAC unit. Cells were clamped at a holding potential of −80 mV. The patch pipettes were made from thin walled borosilicate glass micropipettes (1.5 mm diameter, World Precision Instruments, Sarasota, FL) by a micropipette puller (PP83; Tokyo, Japan). The range of pipette resistance was 3-5 MΩ when filled with intracellular solu-tion contained 140 mM CsF, 1 mM CaCl2, 2 mM MgCl2, 10 mM HEPES, 11 mM EGTA, 2 mM tet-raethylammonium chloride, and 4 mM MgATP; pH 7.3 adjusted with CsOH, 290 to 300 mOsm adjusted with sucrose. Cells were perfused with an extracellular fluid (ECF) contained 140 mM NaCl, 5.4 mM KCl, 2 mM CaCl2, 1 mM MgCl2, 10 mM Glucose, and 10 mM HEPES; pH 7.4 and 6.0 adjusted with NaOH, 320-330 mOsm. […] The data were recorded and analyzed with pClamp and Sigma Plot software.
To determine whether ASIC1 is expressed in human glioma cells, we first investigated the expression of ASIC1 protein in A172 and U87-MG cells by Western blotting. […] Next, the study detected the existence of acid-activated currents and the effect of pharmacologic agents on the currents. Acid-activated currents were recorded by whole cell patch-clamp. […]

[5] = system: A172 cells; assay: Cell viability (MTT) proliferation assay, A172; format: cell-based, human; settings: 20 nM PcTX1, 3 h in pH 7.4 or 7.0 ECF; 24 h, 48 h and 72 h
Procedure: as §3, §4

[6] = system: A172 cells; assay: Transwell migration assay, A172; format: cell-based, human; settings: PcTX1 20 nM, pH 7.0 for 3 h, counted after 24 h
Procedure: The assay is based on two compartments separated by a mem-brane with an accurately defined pore size. Cell transwell chambers with 8-μm pore size of poly-carbonate membrane filters (Corning, USA) were first pre-coated with poly-L-ornithine over-night. Before plating cells, chambers were incubated with serum-free culture medium for 30 minutes. After that, cells were seeded with culture medium containing 1% FBS in the upper-chambers that were immersed to 750 μl whole medium (DMEM with 10% FBS). After incubating for another 24 hours, some cells on the upper surface of the filter migrated through the membrane to the lower surface of the filter. Cells on the upper face of the filter were wiped out thoroughly with cotton swabs, and those attached on the lower surface were fixed with 4% paraformaldehyde for 15 min. They were then stained with 0.5% crystal violet for 10 min, and let the membrane air dry. The cells on the lower surface of the membrane filter were counted under a microscope in 3-4 random fields with 10× magnification. Cell numbers in each group were normalized to the control groups. Assays were performed in at least 3 independent experiments.
To further examine the role of ASIC1 in glioma cell migration, the study performed a transwell migration assay using inserts with an 8-μm pore size. […]

[7] = system: A172 cells; assay: Wound-healing assay, A172; format: cell-based, human; settings: weak acid pH 7.0
Procedure: as §1

## PcTX1 (LECWKRRRSFEVCVPKTPKT; ends and bridges not checked; cysteine pairing not given here)
[1]
  effect on acid-induced migration of U87MG cells (wound-healing and transwell, summary): effectively blocked
[2]
  effect on acid-induced increase of migrated U87MG cells (transwell): completely blocked
[3]
  effect on proliferation of U87MG cells (MTT): no clear effect
[4]
  decrease of the peak of acid-activated currents: 80%
[5]
  effect on proliferation of A172 cells (MTT): no influence
[6]
  effect on acid induced migration of A172 cells (transwell): completely inhibited
[7]
  effect on acid-induced migration of A172 cells (wound-healing and transwell, summary): effectively blocked
